We go through 11 molecules from US10117873B2, “6-amino-purin-8-one compounds” (GlaxoSmithKline LLC, priority 2008, dated 2018).

Structures are written as SMILES. A value given as a limit tells only on which side of the number the result lay.

The subject of assay [1] is Interferon-α. Put plainly: Induction of Interferon-α using cryopreserved human PBMCs. It counts as cell-based. As to conditions: PBMC, 24 h incubation, normalized to 1 uM resiquimod, read-out: mean pEC50 for induction of Interferon-α (converted). Here is the method:
Assay for the Induction of Interferon-α Using Cryopreserved Human Peripheral Blood Mononuclear Cells (PBMCs)
Compounds were dissolved in DMSO. Serial 2-fold dilutions with DMSO were prepared and 0.25 μl dispensed into 384-well clear Greiner polypropylene plates.
Blood samples of up to 200 ml were obtained from healthy human donors. Whole blood in 25 ml volumes was overlaid onto 15 ml Ficoll® gradients in Leucosep® tubes, and centrifuged at 1000 g for 20 min. Cells in the band at the plasma/Histopaque® interface were carefully removed and washed twice with PBS (centrifuged at 400 g for 5 min to harvest). The final pellet was resuspended in freezing medium (90% Heat-inactivated serum, 10% DMSO) to a cell concentration of 4×10^7 cells/ml. The resuspended cells were then cryopreserved (frozen) using a rate controlled freezer, and stored at −140° C. for up to 4 months.
Immediately prior to assay, vials of cryopreserved (frozen) PBMCs were thawed rapidly in a water bath at 37° C. A 1:10 dilution of the cells in trypan blue was prepared and counted. The PBMCs were then diluted in growth media [RPMI 1640 containing 10% fetal calf serum (invitrogen), Penicillin+[…] (Gibco cat. #25030-024, 1:50), L-Glutamine 2 mM, and 1000 units/ml recombinant human IFN-gamma (Preprotech catalogue #300-02)] to a density of 1×10^6 cells/ml, and 50 ul/well dispensed to 384-well clear Greiner polypropylene plates containing 0.25 μl DMSO or test compound in 0.25 μl DMSO. […] Plates were incubated for 24 h at 37° C. in 5% CO2.
A multi-isoform immunoassay was used to quantify IFN-α in PBMC supernatants. Rabbit polyclonal antibody against human IFN-α (catalogue number 31101, Stratech Scientific) was diluted 1:10000 in assay buffer (RPMI 1640 containing 10% fetal calf serum, Invitrogen) and 20 μl was added to each well of an MSD® (Meso-Scale® Discovery) single small-spot 384-well GAR (goat anti-rabbit antibody coated) plate.
The plate was incubated for 1 h at room temperature with vigorous shaking. Following three washes with PBS, 20 μl of cell supernatant were added to each well of the plate. The plate was then incubated for 1 h at room temperature with vigorous shaking. A pair of monoclonal antibodies to IFN-α (catalogue numbers 21100 and 21112, Stratech Scientific) were labelled with sulfo-TAG (MSD®), diluted 1:1000 in assay buffer and 20 μl added to each well of the plate. The plate was further incubated for 1 h at room temperature with vigorous shaking. Following three washes with PBS, 30 μl of ×2 T buffer (MSD®) was added to each well and the plate was read on an MSD® Sector 6000 plate reader.
Data were normalized to internal plate controls of 1 uM resiquimod (n=16) and DMSO (n=16). pEC50 values were derived by 4-parameter curve fit with IRLS in ActivityBase, from 11-point, two-fold serial dilution of test compounds.

The subject of the next assay is IFN-α. The experiment in a line: Induction of Interferon-α using fresh human PBMCs. It counts as cell-based. The following applies: PBMC, 24 hr incubation, relative to 2 μM resiquimod control, read-out: mean pEC50 for induction of IFN-α (converted). As to the method:
(§1) Assay for the Induction of Interferon-α and TNF-α Using Fresh Human Peripheral Blood Mononuclear Cells (PBMCs)
(§2) Compounds were dissolved and serially diluted in DMSO to give 100× the required concentration range using a Biomek® 2000. 1 ul of test compound was transferred into 96-well tissue culture plates using a Biomek® FX. Each compound was assayed in duplicate for each donor. Each plate contained a dilution series of the TLR7/8 agonist resiquimod as standard and Column 11 contained 1 μl of 200 μM resiquimod (giving a 2 μM final concentration, used to define the approximate maximal response to resiquimod).
(§3) Blood samples from two human donors were collected into sodium heparin (10 U/ml). 25 ml volumes of whole blood were overlaid onto 15 mls Histopaque® in LEUCOSEP™ tubes which were centrifuged at 800 g for 20 min and the band at the plasma/histopaque interface carefully removed. The collected cells were centrifuged at 2500 rpm for 10 min and the pellet resuspended in 10 ml of media (RPMI 1640 (Low endotoxin) supplemented with 10% v/v foetal calf serum (FCS, low endotoxin) 100 U/ml penicillin G, 100 μg/ml streptomycin, 10 mM L-glutamine and 1× non-essential amino acids). A 1:20 dilution of the cells was prepared using trypan blue & the cells counted using a haemocytometer. The PBMCs were diluted to give a final concentration of 2×10^6/ml and 100 ul of this cells suspension was added to wells containing 1 μl of diluted test compound.
(§4) The cell preparations were incubated for 24 hr (37° C., 95% air, 5% CO2) after which a sample of the supernatant was removed using the Biomek® FX and assayed for both IFN-α and TNF-α using the MSD® (Mesoscale Discovery) electrochemiluminescence assay platform. The IFN-α assay was carried out similarly to that described above. The TNF-α assay was carried out as per kit instructions (Cat No K111BHB).
(§5) Cytokine released was expressed as a percentage of the 2 μM resiquimod control (column 11). This percentage was plotted against compound concentration and the pEC50 for the response determined by non-linear least squares curve fitting. For the IFN-α responses generally a 4 parameter logistic model was selected. For the TNF responses where a clear maximum response was obtained (i.e. a well defined plateau in the response was observed) then a 4 parameter model was generally used. If the upper asymptote of the curve wasn't well defined then the curve fitting was generally constrained to a maximal response of 100% (i.e. to the response to 2 μM resiquimod) or to the response of the highest concentration tested if this was greater than the resiquimod response. Some curves were bell shaped for one or both cytokines and the cytokine data on the down slope of the bell shaped response (i.e. concentrations above those giving the maximal response) were generally excluded from the fit, usually with the exception of the concentration immediately above the peak response. Curve fitting thus concentrated on the up slope of the dose response curve.

The next assay has as its system TNF-α. The experiment in a line: Induction of TNF-α using fresh human PBMCs. It counts as cell-based. As to conditions: PBMC, 24 hr incubation, relative to 2 μM resiquimod control, read-out: mean pEC50 for induction of TNF-α (converted). As to the method: as §1, §2, §3, §4, §5
Assay [2] has as its system Interferon-α. Put plainly: Induction of Interferon-α following intranasal dosing in the mouse. The following applies: female BALB/c mice, serum 2 hours after dosing, ELISA. It counts as in vivo. As to the method: Assay for the Induction of Interferon-α Following Intranasal Dosing in the Mouse.
Compounds were dissolved in 0.2% Tween™ 80 in saline and administered intranasally (5 μl in total between the nostrils) to female BALB/c mice (n=6) under general anaesthesia. Animals were euthanased 2 hours after dosing and a terminal blood sample was taken and serum levels of Interferon-α measured using an ELISA assay.
(In general: An ELISA detects its analyte on a solid surface through an enzyme-linked reagent.)

The next assay deals with IL-5. The experiment in a line: Allergen-driven cytokine assay using fresh human PBMCs from atopic volunteers (IL-5). The following applies: at 0.04 μM, compared to the allergen control; PBMCs from three allergic donors, Timothy Grass antigen. Format: cell-based. As to the method:
(§6) Allergen-Driven Cytokine Assay Using Fresh Human Peripheral Blood Mononuclear Cells (PBMCs) from Atopic Volunteers
(§7) An assay based on co-culture of atopic human donor derived peripheral blood mononuclear cells (PBMCs) with allergen and test compounds was developed. After 5-6 days culture, cell supernatants were assayed for a range of cytokines.
(§8) Each compound was assayed in triplicate at all concentrations.
(§9) Defibrinated human blood from volunteers known to be allergic to Timothy grass was centrifuged at 2500 rpm for 15 minutes. The upper layer of serum was collected and heat-inactivated at 56° C. for 30 minutes (HI-autologous serum). The lower layer of cells was resuspended in 50 ml PBS (+Ca+Mg), 25 ml diluted blood were overlaid onto 20 ml Lymphoprep in 50 ml tubes then centrifuged at 2500 rpm for 20 minutes at RT. The band at the serum/Lymphoprep interface was carefully removed. The collected cells were washed with PBS and re-suspended at 4×10^6/ml in growth medium with HI-autologous serum. PBMCs were seeded at 0.4×10^6 cells/well in flat-bottomed 96 well plates in the presence of 10 ug/ml Timothy Grass antigen (Alk Abello) and test compounds at appropriate concentrations in a total volume of 200 ul.
(§10) Plates were incubated at 37° C. in 5% CO2 for up to 6 days. The cell medium from each well was harvested and stored at −20° C. prior to analysis.

A further assay concerns IL-13. Put plainly: Allergen-driven cytokine assay using fresh human PBMCs from atopic volunteers (IL-13). It counts as cell-based. The following applies: at 0.04 μM, compared to the allergen control; PBMCs from three allergic donors, Timothy Grass antigen. As to the method:
as §6, §7, §8, §9, §10

`CCC[C@H](C)Oc1nc(N)c2[nH]c(=O)n(CCCCN3CCCCCC3)c2n1` [Example 21, 6-Amino-9-[4-(hexahydro-1H-azepin-1-yl)butyl]-2-{[(1S)-1-methylbutyl]oxy}-7,9-dihydro-8H-purin-8-one]: the EC50 is less than 3.16 µM with Interferon-α [1], not above 0.001 µM in the assay with IFN-α and not below 0.316 µM with TNF-α. Moreover, the “mean serum levels of Interferon-α” value in the assay with Interferon-α [2] stood at 20326 pg/mL.
For `CCC[C@H](C)Oc1nc(N)c2[nH]c(=O)n(CCCCCN3CCCCC3)c2n1` [Example 22, 6-Amino-2-{[(1S)-1-methylbutyl]oxy}-9-[5-(1-piperidinyl)pentyl]-7,9-dihydro-8H-purin-8-one], the EC50 was less than 3.16 µM with Interferon-α [1], not above 0.001 µM in the assay on IFN-α and not below 0.316 µM with TNF-α. The “reduction of production of Th2 cytokine IL-5” value with IL-5 is on record as not below 50%. The “reduction of production of Th2 cytokine IL-13” value in the assay on IL-13 is listed as not below 50%. For the same molecule, the “mean serum levels of Interferon-α” value in the assay on Interferon-α [2] was 21029 pg/mL.
For the molecule `CCC[C@H](C)Oc1nc(N)c2[nH]c(=O)n(CCCCN3CCCCC3)c2n1` [Example 20, 6-Amino-2-{[(1S)-1-methylbutyl]oxy}-9-[4-(1-piperidinyl)butyl]-7,9-dihydro-8H-purin-8-one], the results for the EC50 with Interferon-α [1], with IFN-α and with TNF-α were less than 3.16 µM, not above 0.001 µM and not below 0.316 µM, respectively.
On the same counts, the results for `CCCCOc1nc(N)c2[nH]c(=O)n(CCCCCN3CCCCCC3)c2n1` [Example 11, 6-Amino-2-(butyloxy)-9-[5-(hexahydro-1H-azepin-1-yl)pentyl]-7,9-dihydro-8H-purin-8-one] are less than 3.16 µM, not above 0.01 µM and more than 1 µM.
Consider `CCC[C@H](C)Oc1nc(N)c2[nH]c(=O)n(CCCCCN3CCCCCC3)c2n1` [Example 23, 6-Amino-9-[5-(hexahydro-1H-azepin-1-yl)pentyl]-2-{[(1S)-1-methylbutyl]oxy}-7,9-dihydro-8H-purin-8-one], for which the EC50 with Interferon-α [1] was less than 3.16 µM; in the assay on IFN-α it was not above 0.001 µM; in the assay on TNF-α, not below 0.316 µM.
Consider `CCCCOc1nc(N)c2[nH]c(=O)n(CCCCCCN3CCCC3)c2n1` [Example 13, 6-Amino-2-(butyloxy)-9-[6-(1-pyrrolidinyl)hexyl]-7,9-dihydro-8H-purin-8-one], for which the EC50 in the assay with Interferon-α [1] was less than 3.16 µM; in the assay on IFN-α it was not above 0.001 µM; with TNF-α, not below 0.316 µM.
On the same counts, the results for `CCCCNc1nc(N)c2[nH]c(=O)n(CCCCN3CCCCCC3)c2n1` [Example 18, 6-Amino-2-(butylamino)-9-[4-(hexahydro-1H-azepin-1-yl)butyl]-7,9-dihydro-8H-purin-8-one] are less than 3.16 µM, not above 0.01 µM and more than 1 µM.
On the same counts, the results for `CCCCOc1nc(N)c2[nH]c(=O)n(CCCCCN3CCCCCCC3)c2n1` [Example 12, 6-Amino-2-(butyloxy)-9-[5-(hexahydro-1(2H)-azocinyl)pentyl]-7,9-dihydro-8H-purin-8-one] are less than 3.16 µM, not above 0.01 µM and more than 1 µM.
On the same counts, the results for `CCCCOc1nc(N)c2[nH]c(=O)n(CCCCN3CCCCC3)c2n1` [Example 6, 6-Amino-2-(butyloxy)-9-[4-(1-piperidinyl)butyl]-7,9-dihydro-8H-purin-8-one] are less than 3.16 µM, not above 0.01 µM and more than 1 µM.
Regarding `CCCCOc1nc(N)c2[nH]c(=O)n(CCCCCCN3CCCCCC3)c2n1` [Example 15, 6-Amino-2-(butyloxy)-9-[6-(hexahydro-1H-azepin-1-yl)hexyl]-7,9-dihydro-8H-purin-8-one], the results for the EC50 in the assay on Interferon-α [1], in the assay on IFN-α and with TNF-α were less than 3.16 µM, not above 0.001 µM and not below 0.316 µM, respectively.
`CCCCOc1nc(N)c2[nH]c(=O)n(CCCCCN3CCCCC3)c2n1` [Example 10, 6-Amino-2-(butyloxy)-9-[5-(1-piperidinyl)pentyl]-7,9-dihydro-8H-purin-8-one]: the EC50 is less than 3.16 µM with Interferon-α [1], not above 0.01 µM with IFN-α and more than 1 µM with TNF-α.
